According to patent publication US20240301472A1, “NUCLEIC ACID DETECTION METHOD, COMPOUND AND FLUORESCENT PROBE” (WAKAYAMA UNIVERSITY, priority 2020, published 2024):
pKd: −log10 of the molar value.

Legend:
living HeLa cells = experiment: Competition experiment with Hoechist 33258 using living HeLa cells; assay type: cell-based; settings: Hoechist 33258 0-20 μM with compound 10 (1 μM) in 5% glucose
Description: In a tenth experiment, a competition experiment with Hoechist 33258 was performed using living HeLa cells. As the staining liquid, one obtained by causing Hoechist 33258 at an arbitrary concentration (0 μM, 5.0 μM, 10 μM, 20 μM) to coexist in a 5% glucose solution of the compound 10 (1 μM) was used, and the experiment was performed according to an operation similar to that in the sixth experiment. […] In FIG. 28, “600 nm” is a 600 nm fluorescence image. “700 nm” is a 700 nm fluorescence image. “Hoe” is a 460 nm fluorescence image at each concentration of Hoechist 33258. “Merged” is a synthesized image of “600 nm”, “700 nm”, and “Hoe”.

fixed HeLa cells = experiment: Competition experiment with Hoechist 33258 using fixed HeLa cells; assay type: cell-based; settings: Hoechist 33258 0-6.0 μM with compound 10 (6 μM) in PBS
Description: In a ninth experiment, a competition experiment with Hoechist 33258 was performed using fixed HeLa cells. As the staining liquid, one obtained by causing Hoechist 33258 at an arbitrary concentration (0 μM, 1.5 μM, 3.0 μM, 6.0 μM) to coexist in a PBS solution of the compound 10 (6 μM) was used, and the experiment was performed according to an operation similar to that in the fourth experiment. […] In FIG. 27, “Ph” is a phase contrast observation image of cells at each concentration of Hoechist 33258. “Hoe” is a 460 nm fluorescence image at each concentration of Hoechist 33258. The fluorescence wavelength of Hoechist 33258 is 460 nm. “600 nm” is a 600 nm fluorescence image. “700 nm” is a 700 nm fluorescence image. “600 nm/700 nm” is a synthesized image of “600 nm” and “700 nm”. “Magnified 600 nm/700 nm” is a magnified image of “600 nm/700 nm”.

[1] = system: viable cells (HeLA, A549, HEK293, MRC-5); experiment: Tracking of quadruplex nucleic acid formation in viable cells stained by compound 10 (response to PDS); assay type: cell-based; settings: PDS 20 μM added to viable cells stained by compound 10 (1 μM)
Description: In the seventh experiment, pyridostatin (PDS: 20 μM) was added to viable cells stained by the same method as that in the sixth experiment and temporal change of a fluorescence image thereafter was observed. Pyridostatin (PDS) is a reagent for stabilizing quadruplex nucleic acids. FIG. 24 and FIG. 25 show the result of the seventh experiment.
In FIG. 25 as well, a case where PDS was added to the viable cells stained by the compound 10 was indicated with PDS (+), and a case where PDS was not added was indicated with PDS (−). In FIG. 25, the vertical axis represents intensity ratio between 600 nm fluorescence and 700 nm fluorescence, and the horizontal axis represents time after addition of PDS.

ds(AAATTT) being a dsDNA = settings: conventional fluorescent ds probe, comparison value, read-out: dissociation constant; cited from earlier work

SMILES: CN1CCN(c2ccc3[nH]c(-c4ccc5[nH]c(-c6ccc(O)cc6)nc5c4)nc3c2)CC1 [Hoechist 33258]
- 600 nm fluorescence intensity of compound 10 with increasing Hoechist 33258 concentration (living HeLa cells): significantly decreased
- 600 nm fluorescence intensity of compound 10 with increasing Hoechist 33258 concentration (fixed HeLa cells): significantly decreased

SMILES: NCCOc1cc(C(=O)Nc2cc(OCCN)c3ccccc3n2)nc(C(=O)Nc2cc(OCCN)c3ccccc3n2)c1 [PDS, Pyridostatin]
- intensity ratio of 700 nm fluorescence to 600 nm fluorescence [1]: increased

SMILES: C[n+]1c(/C=C/c2ccc(O)c(/C=C/c3sc4ccccc4[n+]3C)c2)sc2ccccc21 [QCy-DT, quinone cyanine-dithiazole]
- pKd (ds(AAATTT) being a dsDNA): ~6.17
